{"source": "patent US10758479B2", "about": "“Galenical form for the administration of active ingredients by transmucous means” (priority 2006, dated 2020)", "origin": "cited, not measured here", "key": {"[1]": {"settings": "nasal, per-mucous path"}}, "data": [{"smiles": "CNS(=O)(=O)Cc1ccc2[nH]cc(CCN(C)C)c2c1", "note": "[Sumatriptan]", "values": [{"measurement": "period of action", "setting": "administered enterally", "result": "about two"}, {"measurement": "residual bioavailability", "setting": "administered via the digestive tract", "result": "less than 14 % of the administered dose"}]}, {"smiles": "C[C@]12CC[C@@H]3c4ccc(O)cc4CC[C@H]3[C@@H]1CC[C@@H]2O", "note": "[estradiol]", "values": [{"measurement": "mean bioavailability", "setting": "[1]", "result": "less than 25 % of the administered dose"}]}, {"smiles": "CN(C)C(=O)C(CCN1CCC(O)(c2ccc(Cl)cc2)CC1)(c1ccccc1)c1ccccc1", "note": "[loperamide, Loperamide]", "values": [{"measurement": "portion of the effectively bioavailable dose", "setting": "in the 2 mg administered by the digestive tract", "result": "≤ 0.25", "unit": "mg"}]}]}
